Patent publication US20260132129A1 (Genesis Therapeutics, Inc., priority 2022, published 2026)

Target: T1, PI3Kα H1047R (T47D cells) (Homo sapiens, UniProt P42336, H1047R)
T1 construct: endogenous in cells; host or cells: T47D cells
Assay: PI3Kα cellular assay: pAKT HTRF in T47D cells after EGF stimulation
Format: cell-based
Conditions: for IC50: T47D cells (PI3Kα H1047R), pAKT S473 HTRF
In short: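 pAKT read by HTRF in lysates of EGF-stimulated (20 ng/mL, 10 min) T47D H1047R cells. Before stimulation, serum-starved cells (16 h) received compound for 1 h at 37 °C, dosed from 10,000 nM down to 0.5 nM in 3-fold steps.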

[1] = selectivity T47D (H1047R) over SKBR3 (WT), pAKT HTRF
[2] = 1 hr compound, 20 ng/ml EGF 10 min
[3] = selectivity of T47D (H1047R) over SKBR3 (WT) pAKT IC50

T1 sequence (P42336 whole entry H1047R): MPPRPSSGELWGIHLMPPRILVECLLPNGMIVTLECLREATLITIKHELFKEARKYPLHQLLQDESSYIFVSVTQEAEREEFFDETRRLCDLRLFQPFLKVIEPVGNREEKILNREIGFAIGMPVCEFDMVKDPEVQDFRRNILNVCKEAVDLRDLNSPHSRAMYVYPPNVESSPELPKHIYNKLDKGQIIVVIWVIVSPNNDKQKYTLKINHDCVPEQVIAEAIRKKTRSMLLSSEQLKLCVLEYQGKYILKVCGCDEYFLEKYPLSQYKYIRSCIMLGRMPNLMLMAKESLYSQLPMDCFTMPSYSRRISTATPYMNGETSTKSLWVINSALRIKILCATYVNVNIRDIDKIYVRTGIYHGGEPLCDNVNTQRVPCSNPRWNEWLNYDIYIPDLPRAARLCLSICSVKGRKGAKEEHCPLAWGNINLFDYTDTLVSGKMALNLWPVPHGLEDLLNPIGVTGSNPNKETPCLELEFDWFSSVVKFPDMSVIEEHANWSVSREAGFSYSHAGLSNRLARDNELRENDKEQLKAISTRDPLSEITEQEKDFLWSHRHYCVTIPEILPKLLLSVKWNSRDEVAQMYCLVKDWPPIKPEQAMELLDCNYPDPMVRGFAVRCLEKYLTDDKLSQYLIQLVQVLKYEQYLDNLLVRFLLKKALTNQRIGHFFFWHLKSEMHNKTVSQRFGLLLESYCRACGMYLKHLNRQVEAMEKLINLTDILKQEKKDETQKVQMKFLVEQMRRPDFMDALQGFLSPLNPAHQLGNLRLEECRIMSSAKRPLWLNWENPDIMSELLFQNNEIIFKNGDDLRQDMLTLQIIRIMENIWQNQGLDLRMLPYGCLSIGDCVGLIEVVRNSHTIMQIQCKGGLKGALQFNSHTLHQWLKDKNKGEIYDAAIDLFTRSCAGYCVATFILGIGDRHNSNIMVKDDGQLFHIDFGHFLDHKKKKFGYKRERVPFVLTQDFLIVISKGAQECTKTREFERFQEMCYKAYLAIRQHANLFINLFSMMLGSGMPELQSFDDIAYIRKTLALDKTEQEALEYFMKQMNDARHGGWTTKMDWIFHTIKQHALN
T1 sequence (P27986 whole entry partner): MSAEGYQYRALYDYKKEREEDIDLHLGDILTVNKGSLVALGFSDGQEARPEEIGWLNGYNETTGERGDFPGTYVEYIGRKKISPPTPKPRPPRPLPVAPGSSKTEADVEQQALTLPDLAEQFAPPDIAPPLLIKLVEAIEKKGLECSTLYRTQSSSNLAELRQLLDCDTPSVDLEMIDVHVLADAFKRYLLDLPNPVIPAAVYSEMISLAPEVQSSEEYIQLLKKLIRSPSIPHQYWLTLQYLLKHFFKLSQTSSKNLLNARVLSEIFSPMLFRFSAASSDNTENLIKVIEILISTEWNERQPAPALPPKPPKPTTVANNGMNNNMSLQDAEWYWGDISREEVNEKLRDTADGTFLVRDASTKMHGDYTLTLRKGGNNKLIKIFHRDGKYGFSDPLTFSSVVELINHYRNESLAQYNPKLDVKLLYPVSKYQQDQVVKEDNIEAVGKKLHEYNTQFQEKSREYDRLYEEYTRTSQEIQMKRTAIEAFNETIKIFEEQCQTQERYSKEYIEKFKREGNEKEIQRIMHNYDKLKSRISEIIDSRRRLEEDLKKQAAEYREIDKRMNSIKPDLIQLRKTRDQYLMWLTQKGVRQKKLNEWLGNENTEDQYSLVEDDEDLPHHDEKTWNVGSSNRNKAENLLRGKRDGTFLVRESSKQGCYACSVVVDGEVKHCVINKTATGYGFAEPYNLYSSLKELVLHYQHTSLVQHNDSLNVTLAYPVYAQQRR

| SMILES | T47D pAKT S473 HTRF IC50 (H1047R): T47D (H1047R) selectivity over SKBR3 (WT) [1] | IC50 [2] | IC50 (EGF stimulation) | T47D pAKT S473 HTRF IC50 (H1047R): T47D (H1047R) selectivity over SKBR3 (WT) [3] |
| --- | --- | --- | --- | --- |
| C=C(C)C1CCCC(c2cc(=O)n3cc(C)cc([C@@H](C)Nc4ccccc4C(=O)O)c3n2)CC1 (stereo partly drawn) [Compound 552] | C (C denotes ≤5-fold) | – | – | – |
| CONC(=O)c1ccc(-c2cc(=O)n3cc(C)cc([C@@H](C)Nc4ccccc4C(=O)O)c3n2)cc1 [Compound 485] | C (C denotes ≤5-fold) | > 2000 nM | – | – |
| Cc1cc(C(C)Nc2ccccc2C(=O)O)c2nc(C3CCCN(CC(F)F)C3)c(C)c(=O)n2c1 (stereo not drawn) [Compound 1293] | A (A denotes >20-fold) | – | 100 to 500 nM | – |
| Cc1cc([C@H](C)Nc2ccccc2S(=O)(=O)O)c2nc(-c3cccc(C4CC4)c3)cc(=O)n2c1 [Compound 1327] | B (B denotes 20-fold≥value>5-fold) | – | – | – |
| Cc1cc(C(C)Nc2ccccc2C(=O)O)c2nc(-c3ccc4c(n3)c(C)nn4C)c(C)c(=O)n2c1 (stereo not drawn) [Compound 859] | – | – | 100 to 500 nM | A (A denotes >20-fold) |
| Cc1cc([C@H](C)Nc2ccccc2C(=O)O)c2nc(-n3cnc4cc(O)ccc43)cc(=O)n2c1 [Compound 774] | – | – | > 2000 nM | C (C denotes ≤5-fold) |
| Cc1cc(C(C)Nc2ccccc2C(=O)O)c2nc(-c3ccc4c(c(N)nn4C)c3C)cc(=O)n2c1 (stereo not drawn) [Compound 701] | – | – | > 2000 nM | C (C denotes ≤5-fold) |
| Cc1cc([C@H](C)Nc2ccccc2S(N)(=O)=O)c2nc(N3CCOCC3)cc(=O)n2c1 [Compound 152] | B (B denotes 20-fold≥value>5-fold) | 500 to 2000 nM | – | – |
| Cc1cc(C(C)Nc2ccccc2C(=O)O)c2nc(-c3ccc4c(C)nn(C)c4c3)cc(=O)n2c1 (stereo not drawn) [Compound 818] | – | – | < 100 nM | A (A denotes >20-fold) |
| Cc1cc(C(C)Nc2ccccc2C(=O)O)c2nc(N3CCN(CCC(N)=O)CC3)cc(=O)n2c1 (stereo not drawn) [Compound 550] | C (C denotes ≤5-fold) | > 2000 nM | – | – |
| Cc1cc(C(C)Nc2ccccc2C(=O)O)c2nc(-c3ccc(CN4CCN(C(=O)C5CC5)CC4)c(F)c3)cc(=O)n2c1 (single isomer, unassigned) [Compound 420] | A (A denotes >20-fold) | 100 to 500 nM | – | – |
| Cc1cc([C@@H](C)Nc2ccccc2C(=O)O)c2nc(-c3ccc(CC4CCN(C)CC4)cc3)c(C)c(=O)n2c1 [Compound 307] | B (B denotes 20-fold≥value>5-fold) | 500 to 2000 nM | – | – |
| Cc1cc([C@@H](C)Nc2ccnnc2C(=O)O)c2nc(N3CCOCC3)cc(=O)n2c1 [Compound 377] | C (C denotes ≤5-fold) | > 2000 nM | – | – |
| Cc1cc(C(C)Nc2cccc3c2=NCN=3)c2nc(N3CCOCC3)cc(=O)n2c1 (stereo not drawn) [Compound 782] | – | – | > 2000 nM | C (C denotes ≤5-fold) |
| Cc1cc([C@@H](C)Nc2ccccc2C(=O)O)c2nc(-c3cnc4c(c3)c(C)nn4C)cc(=O)n2c1 (single isomer, unassigned) [Compound 696] | – | – | < 100 nM | A (A denotes >20-fold) |
| Cc1cc([C@@H](C)Nc2ccccc2C(=O)O)c2nc(-c3cccc(C(F)F)c3)c(C)c(=O)n2c1 [Compound 972, (R)-2-((1-(2-(3-(difluoromethyl)phenyl)-3,7-dimethyl-4-oxo-4H-pyrido[1,2-a]pyrimidin-9-yl)ethyl)amino)benzoic acid] | – | – | < 100 nM | A (A denotes >20-fold) |
| Cc1cc(C(C)Oc2ccccc2C(=O)O)c2nc(-c3cccc(F)c3)c(C)c(=O)n2c1 (stereo not drawn) [Compound 1337] | C (C denotes ≤5-fold) | – | – | – |
| Cc1cc([C@H](C)Nc2ccccc2S(N)(=O)=O)c2nc(-c3ccc(F)c(C#N)c3)c(C)c(=O)n2c1 [Compound 1032] | – | – | > 2000 nM | C (C denotes ≤5-fold) |
| Cc1cc([C@H](C)Nc2ccccc2C(=O)O)c2nc(-c3cnc(C)c(Cl)c3)cc(=O)n2c1 [Compound 1158] | C (C denotes ≤5-fold) | – | > 2000 nM | – |
| Cc1cc(C(C)Nc2ccccc2C(=O)O)c2nc(-c3ccc(F)cc3)c(C)c(=O)n2c1 (stereo not drawn) [Compound 721] | – | – | 100 to 500 nM | – |
| Cc1cc(C(C)Nc2ccccc2C(=O)O)c2nc(N3CCC(NS(C)(=O)=O)CC3)cc(=O)n2c1 (stereo not drawn) [Compound 433] | C (C denotes ≤5-fold) | – | – | – |
| Cc1cc([C@@H](C)Oc2ccc(F)cc2C(=O)O)c2nc(N3CCOCC3)cc(=O)n2c1 [Compound 332] | C (C denotes ≤5-fold) | > 2000 nM | – | – |
